Reference: patent US10689673B2, “Bioconversion process for producing nylon-7, nylon-7,7 and polyesters” (INVISTA NORTH AMERICA S.A.R.L., priority 2011, dated 2020)

Tests used:
[1] = target: T1, Haemophilus influenzae YciA thioesterase (Haemophilus influenzae, UniProt P44886); test: Biotransformation of pimeloyl-CoA to pimelic acid with YciA thioesterase cell free extract; format: biochemical; settings: 1 mM substrate, ~15 g/L whole cell equivalents, pH 7.5, 20° C., after 1 hour
T1 construct: made in house; host or cells: E. coli BL21 (DE3), cell-free extract
Procedure: Biotransformations were carried out in a final volume of 2 mL. The biotransformations comprised of 1 mM substrate, 200 mM KCl and 50 mM potassium Hepes (pH 7.5). Negative controls comprised of cells harbouring the empty vector The biocatalyst was charged as a cell free extract to give a final concentration of ˜15 g/L whole cell equivalents. The reactions were carried out at ambient temperature (20° C.) in 15 mL falcon tubes with stirring. Each biotransformation was sampled after 1 h, 4 h and 24 h and analysed by HPLC (Agilent 1100) on a Phenomenex Luna C18 250×4.6 mm, 5 micron column. […] The filtrates were analysed by HPLC at 260 nm for the disappearance of pimeloyl-CoA (Rt 12.39 mins) and the formation of CoA (Rt 7.98 minutes), both which absorbs strongly at this wavelength, while pimlic acid was not detectable by UV at 260 nm. Pimelic acid formation was confirmed by LC-MS.

[2] = target: T2, Citrobacter amalonaticus methylaspartate ammonia lyase (MAL) (Citrobacter amalonaticus, UniProt O66145); test: Biotransformation of beta-methyl aspartate with I4 lyase strain cell extract; format: biochemical; settings: 10 mM substrate, 5 or 20 g/L whole cell equivalent, 30° C., after 1 hour
T2 construct: made in house; host or cells: E. coli BL21 (DE3), pET21-a, cell-free extract

[3] = tested on: Aspergillus oryzae methylaspartate ammonia lyase (MAL); settings: 10 mM substrate, 5 or 20 g/L whole cell equivalent, 30° C., 1, 5 and 18 hours
[4] = target: T3, Clostridium tetanomorphum methylaspartate ammonia lyase (MAL) (Clostridium tetanomorphum, UniProt Q05514); test: Biotransformation of beta-methyl aspartate with I5 lyase strain cell extract; format: biochemical; settings: 10 mM substrate, 5 or 20 g/L whole cell equivalent, 30° C., after 1 hour
T3 construct: made in house; host or cells: E. coli BL21 (DE3), pET21-a, cell-free extract

[5] = target: T4, Nocardia sp. carboxylic acid reductase (CAR) (Nocardia iowensis, UniProt Q6RKB1); test: Carboxylic acid reductase (CAR) spectrophotometric assay of NADPH consumption; format: biochemical
T4 construct: made in house; host or cells: E. coli BL21, cell-free extract
Text: The conditions for the assay were taken from Applied and Environmental Microbiology 2004, 70, p 1874-1881.

[6] = target: T5, Aminoadipate aminotransferase (Q64602) (Bos taurus, UniProt Q5E9N4); settings: cited from earlier work
T5 construct: host or cells: bovine kidney

[7] = tested on: PauA pimeloyl-CoA ligase (EC 6.2.1.14); settings: substrate of pauA; pimelate = 100%; cited from earlier work
[8] = target: T6, ACOT5 (formerly PTE-1c) (Mus musculus, UniProt Q6Q2Z6); settings: cited from earlier work
T6 construct: His tag; host or cells: E. coli
T6 sequence (Q6Q2Z6 1-421): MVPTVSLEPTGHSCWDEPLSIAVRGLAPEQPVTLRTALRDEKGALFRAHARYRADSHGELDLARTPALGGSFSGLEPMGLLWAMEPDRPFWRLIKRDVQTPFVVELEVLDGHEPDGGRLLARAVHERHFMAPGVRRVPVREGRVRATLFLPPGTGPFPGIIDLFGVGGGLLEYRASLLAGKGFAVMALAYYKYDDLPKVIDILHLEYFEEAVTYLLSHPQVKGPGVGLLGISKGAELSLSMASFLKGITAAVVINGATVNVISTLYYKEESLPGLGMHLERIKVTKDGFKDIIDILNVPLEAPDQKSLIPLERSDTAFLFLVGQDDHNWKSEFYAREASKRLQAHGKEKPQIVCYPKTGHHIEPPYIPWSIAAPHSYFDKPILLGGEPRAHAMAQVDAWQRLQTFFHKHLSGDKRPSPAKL

[9] = target: T7, ACOT4 peroxisomal acyl-CoA thioesterase 4 (Mus musculus, UniProt Q8BWN8); settings: at concentrations up to 500 μM; cited from earlier work
T7 construct: His tag; host or cells: E. coli
T7 sequence (Q8BWN8 1-421): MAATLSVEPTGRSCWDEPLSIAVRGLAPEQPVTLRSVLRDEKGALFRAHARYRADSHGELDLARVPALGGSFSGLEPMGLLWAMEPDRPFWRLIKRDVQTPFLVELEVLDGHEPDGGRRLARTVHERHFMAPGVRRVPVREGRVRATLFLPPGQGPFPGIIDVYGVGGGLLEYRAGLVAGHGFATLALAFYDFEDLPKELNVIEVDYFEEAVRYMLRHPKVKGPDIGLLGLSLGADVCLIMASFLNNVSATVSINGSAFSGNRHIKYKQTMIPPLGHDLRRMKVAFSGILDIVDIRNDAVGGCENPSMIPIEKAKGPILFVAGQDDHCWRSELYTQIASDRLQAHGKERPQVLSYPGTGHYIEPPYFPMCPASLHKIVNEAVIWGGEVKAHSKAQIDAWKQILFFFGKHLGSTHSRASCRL

[10] = target: T8, ACOT3 (formerly PTE-1a) (Mus musculus, UniProt Q9QYR7); settings: cited from earlier work
T8 construct: His tag; host or cells: E. coli
T8 sequence (Q9QYR7 1-432): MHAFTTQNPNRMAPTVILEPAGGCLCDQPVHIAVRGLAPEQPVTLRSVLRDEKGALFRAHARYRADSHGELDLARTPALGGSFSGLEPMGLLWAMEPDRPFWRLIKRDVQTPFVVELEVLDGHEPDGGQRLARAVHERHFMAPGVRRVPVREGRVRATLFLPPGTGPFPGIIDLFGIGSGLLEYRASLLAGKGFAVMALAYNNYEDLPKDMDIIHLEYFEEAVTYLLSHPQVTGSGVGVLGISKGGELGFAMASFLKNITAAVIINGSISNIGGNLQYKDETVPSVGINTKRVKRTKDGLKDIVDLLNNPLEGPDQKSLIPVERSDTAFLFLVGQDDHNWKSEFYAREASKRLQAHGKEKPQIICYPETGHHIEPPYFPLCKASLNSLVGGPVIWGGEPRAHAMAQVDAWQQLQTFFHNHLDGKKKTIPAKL

T4 sequence (Q6RKB1 2-1174): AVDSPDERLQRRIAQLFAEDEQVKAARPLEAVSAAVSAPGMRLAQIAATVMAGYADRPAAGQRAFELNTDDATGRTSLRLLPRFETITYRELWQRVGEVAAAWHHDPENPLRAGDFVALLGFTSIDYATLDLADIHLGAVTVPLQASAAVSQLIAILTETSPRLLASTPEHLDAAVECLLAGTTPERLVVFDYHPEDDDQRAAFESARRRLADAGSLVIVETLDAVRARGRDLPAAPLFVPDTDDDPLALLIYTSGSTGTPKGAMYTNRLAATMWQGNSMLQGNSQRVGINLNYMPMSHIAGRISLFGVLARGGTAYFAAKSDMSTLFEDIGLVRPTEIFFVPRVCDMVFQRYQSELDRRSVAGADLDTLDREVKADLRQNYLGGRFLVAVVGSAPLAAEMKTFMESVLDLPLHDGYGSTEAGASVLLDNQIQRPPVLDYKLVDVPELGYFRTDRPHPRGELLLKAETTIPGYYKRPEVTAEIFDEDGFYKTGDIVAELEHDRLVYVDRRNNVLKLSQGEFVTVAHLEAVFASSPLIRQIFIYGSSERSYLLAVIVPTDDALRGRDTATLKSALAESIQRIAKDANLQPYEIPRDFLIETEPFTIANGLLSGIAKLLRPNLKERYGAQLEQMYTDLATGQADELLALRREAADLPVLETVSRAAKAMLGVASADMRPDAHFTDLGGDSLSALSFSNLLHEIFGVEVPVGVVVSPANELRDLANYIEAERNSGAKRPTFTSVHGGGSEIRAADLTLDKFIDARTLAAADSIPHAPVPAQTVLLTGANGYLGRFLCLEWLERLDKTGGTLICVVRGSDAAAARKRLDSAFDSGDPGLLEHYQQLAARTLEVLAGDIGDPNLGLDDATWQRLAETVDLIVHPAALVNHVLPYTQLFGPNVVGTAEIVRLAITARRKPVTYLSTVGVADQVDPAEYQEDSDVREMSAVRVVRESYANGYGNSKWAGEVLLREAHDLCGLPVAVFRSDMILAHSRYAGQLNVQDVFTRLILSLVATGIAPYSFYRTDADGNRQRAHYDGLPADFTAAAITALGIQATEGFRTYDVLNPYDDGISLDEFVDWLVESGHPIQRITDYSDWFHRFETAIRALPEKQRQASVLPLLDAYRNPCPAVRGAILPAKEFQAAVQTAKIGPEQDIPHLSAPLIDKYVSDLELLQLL
T5 sequence (Q5E9N4 30-425, one chain of several): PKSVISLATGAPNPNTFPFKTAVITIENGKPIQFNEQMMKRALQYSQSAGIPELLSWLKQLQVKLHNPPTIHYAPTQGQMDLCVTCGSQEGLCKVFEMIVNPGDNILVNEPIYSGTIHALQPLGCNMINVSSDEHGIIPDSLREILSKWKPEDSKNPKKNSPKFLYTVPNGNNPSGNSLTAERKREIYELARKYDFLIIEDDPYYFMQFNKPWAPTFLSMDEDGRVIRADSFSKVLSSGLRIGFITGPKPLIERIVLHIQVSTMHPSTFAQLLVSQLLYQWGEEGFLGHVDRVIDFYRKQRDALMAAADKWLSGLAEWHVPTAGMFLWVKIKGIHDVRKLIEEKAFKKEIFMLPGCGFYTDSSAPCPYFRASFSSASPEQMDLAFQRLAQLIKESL
T2 sequence (O66145 whole entry): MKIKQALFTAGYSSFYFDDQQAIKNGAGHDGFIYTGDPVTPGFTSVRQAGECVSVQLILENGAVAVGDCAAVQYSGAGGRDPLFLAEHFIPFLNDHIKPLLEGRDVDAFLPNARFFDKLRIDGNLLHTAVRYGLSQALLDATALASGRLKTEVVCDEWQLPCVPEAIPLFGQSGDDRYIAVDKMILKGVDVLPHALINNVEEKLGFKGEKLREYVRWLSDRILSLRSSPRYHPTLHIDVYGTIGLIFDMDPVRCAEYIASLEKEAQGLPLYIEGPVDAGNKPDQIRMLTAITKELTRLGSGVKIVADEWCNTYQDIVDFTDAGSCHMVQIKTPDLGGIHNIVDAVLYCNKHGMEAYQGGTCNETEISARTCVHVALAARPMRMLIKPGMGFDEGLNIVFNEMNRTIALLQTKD
T1 sequence (P44886 whole entry): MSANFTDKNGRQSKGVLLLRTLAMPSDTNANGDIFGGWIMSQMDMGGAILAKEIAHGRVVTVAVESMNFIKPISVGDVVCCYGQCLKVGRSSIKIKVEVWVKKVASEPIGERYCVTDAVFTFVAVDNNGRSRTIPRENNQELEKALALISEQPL
T3 sequence (Q05514 whole entry): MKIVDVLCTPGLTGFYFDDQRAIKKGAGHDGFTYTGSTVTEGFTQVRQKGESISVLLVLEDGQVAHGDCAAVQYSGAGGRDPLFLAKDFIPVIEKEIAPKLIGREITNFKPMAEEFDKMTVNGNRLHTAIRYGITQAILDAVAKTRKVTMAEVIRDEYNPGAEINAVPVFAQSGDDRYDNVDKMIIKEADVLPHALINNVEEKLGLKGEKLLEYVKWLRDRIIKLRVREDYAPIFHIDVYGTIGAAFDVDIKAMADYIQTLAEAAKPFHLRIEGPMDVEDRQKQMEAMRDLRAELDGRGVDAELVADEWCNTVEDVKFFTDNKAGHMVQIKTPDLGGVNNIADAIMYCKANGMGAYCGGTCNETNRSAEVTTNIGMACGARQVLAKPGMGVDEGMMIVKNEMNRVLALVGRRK

SMILES: CC(C)(COP(=O)(O)OP(=O)(O)OC[C@H]1O[C@@H](n2cnc3c(N)ncnc32)[C@H](O)[C@@H]1OP(=O)(O)O)[C@@H](O)C(=O)NCCC(=O)NCCSC(=O)CCCCCC(=O)O [pimeloyl-CoA]
- hydrolysis to pimelic acid [1]: Complete hydrolysis

SMILES: C[C@H](C(=O)O)[C@@H](N)C(=O)O (racemic) [DL-threo-beta methyl aspartate]
- conversion to mesaconic acid [2]: complete conversion
- lyase activity (mesaconic acid formation) [3]: No activity
- conversion to mesaconic acid [4]: complete conversion

SMILES: O=C(O)CCCCCC(=O)O [Pimelic acid]
- NADPH consumption (uncorrected) ([5]; 50 mM substrate, rCAR cell free extract 4.3 g/L whole cell equivalents, pH 7.5, ~20 deg C, change in absorbance over time): −0.00096
- NADPH consumption (corrected for background) ([5]; as uncorrected, corrected with negative control (BL21 empty vector) rate): −0.00103
- activity relative to the activity for benzoic acid ([5]; reduction to pimelic acid semialdehyde): > 100%
- reduction in activity in the presence of pimelic acid [6]: 30%
- relative activity [7]: 100%

SMILES: CC(C)(COP(=O)(O)OP(=O)(O)OC[C@H]1O[C@@H](n2cnc3c(N)ncnc32)[C@H](O)[C@@H]1OP(=O)(O)O)[C@@H](O)C(=O)NCCC(=O)NCCS [CoASH]
- inhibition with free CoASH [8]: no inhibition
- inhibition of the reaction by CoASH [9]: not inhibited
- inhibition with free CoASH [10]: no inhibition
